Data set [1] has as its system liver of mice. The data set is described as follows: Pathomorphological evaluation of liver. In kind it is in vivo. The conditions noted are these: 50 mg/kg oral, 14 days. As to the method: (§1) Tissues from the liver, kidney and small intestine of the mice from all groups were collected post-mortem and fixed in 10% buffered formalin for 48 h. fixed tissues were processed according to the classical paraffin method. The cutting of the paraffin blocks was performed using a paraffin rotary microtome Leica RM 2255 at a slice thickness of 5 µm. The sections were stained with hematoxylin and eosin (H&E). Histological changes were examined and imaged with a Leica DM2500 light microscope equipped with a Leica MC120HD digital camera and also with Euromex BioBlue (Belgium) digital camera

For data set [2], the system named is male Jcl:ICR mice. The data set can be described thus: Sub-acute toxicity, 14 days oral: complete blood count. The data set is classed as in vivo. The conditions noted are these: 50 mg/kg oral. As to the method:
(§2) The sub-acute toxicity effects were assessed after repeated (14 days) oral administration to male mice. […] The experiments were performed with male Jcl: ICR mice at the same age of 6 weeks and weighing approximately 30–35 g, in which the substances were administered daily for 14 days orally with a gastric tube at approximately the same time of the day. The compounds were solubilized with Tween 80 (0.1%) in distilled water and administered orally in a volume of 0.1 mL per 10.0 g. Animals were observed daily for behavioral changes and signs of toxicity. All results were compared with the positive control isoniazid (INH).
(§3) Serum biochemical parameters were assessed as follows.

Data set [3] concerns small intestine of mice. The data set is described as follows: Pathomorphological evaluation of small intestine. The conditions noted are these: 50 mg/kg oral, 14 days. In kind it is in vivo. The method, then: as §1
Data set [4] concerns GSH in the liver homogenate. The data set can be described thus: Total glutathione in liver homogenate. The data set is classed as in vivo, mice. As to conditions: 50 mg/kg oral, 14 days. The method, then:
as §3
According to Rahman et al. total glutathione (tGSH) concentration was determined. In the reaction between GSH and 5,5′-dithiobis-2-nitrobenzoic acid (DTNB), the rate of formation of colored substance, 5′-thio-2-nitrobenzoic acid (TNB), is proportional to the concentration of tGSH in the sample. The maximal absorption of colored TNB is at 412 nm. The concentration of tGSH was calculated using oxidized glutathione as a reference standard and was expressed as ng/mg protein.

Data set [5] has as its system kidney of mice. The data set is described as follows: Pathomorphological evaluation of kidney. In kind it is in vivo. The conditions noted are these: 50 mg/kg oral, 14 days. As to the method:
as §1

A short description of data set [6]: GIT PAMPA intestinal permeability (Double-Sink protocol). In kind it is in vitro ADME. As to the method:
The intestinal permeability of isoniazid and the newly synthesized derivatives was measured by PAMPA Permeability Analyzer (pION Inc., Billerica, MA, USA) following the Double-Sink™ Protocol. PAMPA assay kits were purchased from pION Inc. According to the protocol, the donor compartment of the “sandwich” is loaded with compound solutions adjusted to three different pH values of 5.0, 6.2, and 7.4. The acceptor wells are filled with an ASB of fixed pH 7.4, containing chemical scavengers that simulate the effect of serum proteins. In the central circulation, pH 7.4 is constantly maintained, and the blood flow, as well as the serum proteins, support the one-directional process of absorption. Reference spectra (ketoprofen, antipyrine, and ranitidine) were used to assess the transfer of compounds from the donor to the acceptor phase. The permeation ability was estimated based on permeability coefficient values Pe (10^−6 cm/s), presented in logarithmic terms (−logPe). Values of −logPe < 5 were accepted as indicative of highly permeable compounds. When −logPe acquired values between 5 and 6, compounds were considered as medium permeable, and if −logPe > 6–as low permeable. Experiments were performed in triplicate and permeation coefficients Pe (−logPe values, respectively) are calculated using PAMPA Explorer Command Software (Version 3.8).
A general note: PAMPA measures passive passage across an artificial lipid membrane.

In data set [7] the test system is SOD in the liver supernatant. The data set is described as follows: SOD activity in liver supernatant. The data set is classed as in vivo, mice. As to conditions: 50 mg/kg oral, 14 days. The method, then:
as §3
SOD activity was measured by the method of Beauchamp and Fridovich. Superoxide anion radicals generated photochemically for 7 min, reduced nitro blue tetrazolium (NBT) obtaining insoluble formazan in violet color. The reduction of NBT inhibition in the presence of different enzyme concentrations was read at 560 nm vs. control of reaction mixture. The amount of enzyme performing 50% inhibition of NBT reduction is accepted as a unit of activity (U/mg protein).

Data set [8] concerns MDA in the liver homogenate. The data set is described as follows: Endogenous MDA (spontaneous lipid peroxidation) in liver homogenate. As to conditions: 50 mg/kg oral, 14 days; vs controls.
Procedure: On day 14, the animals were anesthetized with ketamine/ xylazine and decapitated. […] Livers were taken to assess oxidative stress and antioxidant status in the study groups.
For the in vivo experiments (spontaneous lipid peroxidation) the postnuclear homogenates of the liver (mg protein/mL) in 0.15 M KCl—10 mM potassium phosphate buffer, pH 7.2, were heated for 15 min at 100 °C in the presence of 40% TCA + 5N HCl + 2% thiobarbituric acid (2:1:2 v/v) for color developing. After cooling and centrifugation, the absorbance was read at 532 nm against dd H2O as blank. The values were expressed in nmoles malondialdehyde (MDA) per mg protein, with a molar extinction coefficient of 1.56 × 10^−5 M^−1cm^−1.
Data set [9] has as its system male Jcl:ICR mice. The data set can be described thus: Sub-acute toxicity, 14 days oral: serum biochemical parameters. The data set is classed as in vivo. As to conditions: 50 mg/kg oral. The method, then: as §2, §3
Data set [10] has as its system Glutathione peroxidase in the liver supernatant. The data set is described as follows: Glutathione peroxidase activity in liver supernatant. In kind it is in vivo, mice. The conditions noted are these: 50 mg/kg oral, 14 days. As to the method:
as §3
The Glutathione Peroxidase Cellular Activity Assay Kit (Cat. No. CGP1) and Glutathione Reductase Assay Kit (Cat. No. GRSA) were used to measure the activities of glutathione-related enzymes.

Data set [11] is described as follows: ABTS•+ assay. The conditions noted are these: 15 min at 37 °C. The method, then: ABTS (2,2′-azino-bis (3-ethylbenzthiazoline-6-sulphonic acid) (7.0 mM) was mixed with potassium persulfate (2.45 mM) to obtain the cationic radical (ABTS•+) The solution was diluted in methanol (2 mL ABTS•+ + 58 mL methanol). The absorption at 743 nm of the resulting working solution was 1.1 ± 0.02 AU. Then, 1.425 mL of ABTS•+ working solution was added to 75 μL of the test drugs, and the absorption at 743 nm was measured after 15 min of incubation at 37 °C against methanol. A blank containing 75 μL of water instead of the test extract also was measured against methanol.
(§4) All data are presented as IC50, which gave 50% inhibition of the activities and compared against the activity of Trolox—a common antioxidant, at the same concentrations.

The test system of data set [12] is Fe^2+-asc.—induced lipid peroxidation in brain homogenate. The data set is described as follows: Fe-induced lipid peroxidation inhibition assay in vitro (TBARS). The data set is classed as biochemical. The conditions noted are these: model system of brain homogenate, 10 mM FeCl3 and 10 mM ascorbic acid. The method, then:
Malondialdehyde as a marker of lipid peroxidation was determined by the formation of endogenous lipid peroxidation products, reacting with 2-thiobarbituric acid (TBARS), and detected spectrophotometrically (λmax = 532 nm) adapted by Mileva et al.. The method is based on the reaction of thiobarbituric acid (TBA) with the final products of lipids oxidation and formation of malondialdehyde (MDA). […] After that to the samples was added 0.6 mL a mixture of trichloroacetic acid (TCA)—TCA:HCl:TBA in 2:1:2 ratio and boiled in a water bath. After cooling and centrifugation at 3000 nrp the obtained color complex was read spectrophotometrically at A532 nm against the appropriate blank. The results were expressed in percentage inhibition of lipid peroxidation (received MDA per mg protein content from the control).
as §4

Data set [13] can be described thus: DPPH assay. As to conditions: 0.1 mM DPPH in methanol, 30 min. The method, then: DPPH (2,2′-diphenyl-1-picrylhydrazyl radical) assay analysis of pure compounds was conducted by the method described by Brand-Williams et al.. First, 500 μL of the test solutions were added to 500 μL of a freshly prepared solution of 0.1 mM DPPH in methanol and incubated in the dark for 30 min. Then the absorbance at 517 nm (A517) was measured against a mixture of DPPH solution and methanol (1:1) as a control.
as §4
(Loss of DPPH colour is used to gauge radical scavenging.)

Consider `NNC(=O)c1ccncc1` [INH, isoniazid, reference compound], for which, in data set [1], the “Lobular inflammatory process and hepatocyte loss” value is “not reported”; the “signs related to initiated fibroblastic process (organ collagenization and fibrosis)” value is reported as “No signs”. In data set [2], the HCT amounted to 33.3 ± 2.1 %, the Hgb was determined as 112 ± 2.2 g/L, the PLT is on record as 789 ± 183 10^9/L and the RBC is 5.35 ± 0.2 × 10^12/L. Also, in [2], the WBC is reported as 9.9 ± 0.54 × 10^9/L, the “increase of leukocytes compared to controls” value was 70%, the “reduction in hematocrit compared to the control group” value amounted to 20% and the “reduction in the level of erythrocytes compared to the control group” value worked out at 28%. Moreover, in data set [2], the “reduction in the level of hemoglobin compared to the control group” value is 21%. Moreover, in data set [3], the “Pathomorphological findings in the small intestine” value was “there were no defects in the epithelium, reaching and exceeding the muscular layer of the epithelium”; the villous dullness score is listed as 1. Also, in data set [4], the “level of total GSH in liver homogenate” value is recorded as “decreased the level of total GSH”. Also, in data set [4] (vs control levels), the glutathione deficiency entry is on record as “about 30%”. The “Pathomorphological findings in the kidney” value in [5] was “the curved parts of the distal tubules have a lower upholstered epithelium, wide luminal segments, and preserved histological structure”. For the same molecule, the “−logPe, GIT PAMPA” value in data set [6] (at the given experimental conditions (all tested pH), impermeable) was greater than 6. The “−logPe, GIT PAMPA” value in data set [6] (donor pH = 5.0, acceptor pH 7.4, Pe in 10^−6 cm/s) is given as 6.226. In addition, the “−logPe, GIT PAMPA” value in data set [6] (donor pH = 6.2, acceptor pH 7.4, Pe in 10^−6 cm/s) was 6.591. The “−logPe, GIT PAMPA” value in data set [6] (donor pH = 7.4, acceptor pH 7.4, Pe in 10^−6 cm/s) was 6.594. Also, the “increase of the activity of SOD in liver” value in data set [7] was 25%. The “increase of the level of MDA in liver homogenate” value in data set [8] was “more than 35%”. For the same molecule, in [9], the “decrease of albumin compared to controls” value came to 23%, the “decrease of total protein compared to controls” value was found to be 26%, the “direct bilirubin higher than controls” value stood at 48% and the “increase of ALAT compared to control animals” value worked out at 67%. Also, in data set [9], the “increase of ASAT compared to control animals” value was 52%, the “increase of creatinine compared to controls” value was 29%, the “increase of urea compared to controls” value came to 49% and the “total bilirubin higher than controls” value was 40%. In data set [9] (serum), this molecule registered an ALAT of 96.6 ± 3.1 U/L, an ALB of 21.6 ± 1.7 g/L, an ASAT of 126 ± 5.2 U/L and a CREAT of 126.6 ± 8.2 µmol/L. In data set [9] (serum), the D-Bil is 6.5 ± 0.44 µmol/L, the GLU is given as 6.4 ± 0.47 mmol/L, the T-Bil amounted to 12.0 ± 0.38 µmol/L and the TP is reported as 43.2 ± 3.1 g/L. In [9] (serum), this molecule gave a UA of 196 ± 20.7 µmol/L and a UREA of 13.6 ± 0.36 mmol/L. For the same molecule, in data set [10], the “increase of the activity of GPx compared to controls” value is listed as 35%.

On to `Cc1c(C)c2c(c(C)c1O)CCC(C)(C(=O)O)O2` (centres unmarked) [Trolox, 6-hydroxy-2,5,7,8-tetramethylchroman-2-carboxylic acid, reference compound], for which the “ABTS Scavenging, IC50” value in [11] was 24.8 mg/mL. The “Fe^2+-asc.—Induced LP in Liver, IC50” value in data set [12] turned out to be 18.2 mg/mL. Further, the “DPPH Scavenging, IC50” value in [13] is 8.92 mg/mL.
